Reference: article PMC4809600, “The Influence of Chronic Wound Extracts on Inflammatory Cytokine and Histatin Stability” (PLoS ONE, 2016)

Experiments:
[1] = Stability in chronic wound extracts (CWE), capillary zone electrophoresis; assay type: in vitro ADME, human; conditions: 37°C, CZE; for Percentage intact, CWE 2h / Percentage intact, CWE 4h / Percentage intact, CWE 8h / Percentage intact, CWE 16h / Percentage intact, CWE 24h / Percentage intact, CWE 48h / Percentage intact, CWE 72h / Percentage intact, CWE 96h: 1 mg/ml in PBS mixed 1:1 with CWE (1 mg/ml protein, pool of 5 donors) in PBS, UV 200 nm, ratio to imidazole
Summary of the method: (§1)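 Peptides or cytokines (1 mg/ml stock) mixed 1:1 with PBS or pooled chronic-wound extract (1 mg/ml protein, three pools of five donors), ±protease inhibitor cocktail, at 37 °C for up to 96 h. Analyzed by capillary zone electrophoresis (pH 2.5 phosphate, 200 nm), with peak ratio to imidazole standard relative to 0 h as % intact.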

[2] = Stability in PBS, capillary zone electrophoresis; assay type: physicochemical; conditions: 1 mg/ml in PBS mixed 1:1 with PBS, 37°C, 24 h, CZE, UV 200 nm, ratio to imidazole internal standard, 0 h = 100%
Procedure: To determine the stability of the different peptides in CWE, histatins and cytokines were dissolved in PBS at 1 mg/ml. Histatins and cytokines were incubated in a 1:1 ratio with (i) PBS, (ii) CWE in PBS, or (iii) CWE in PBS containing PIC, in a total volume of 25 μl. Imidazole (Sigma-Aldrich) was added as an internal standard, with a final concentration of 100 μg/ml. The mixtures were incubated at 37°C, and samples were taken at 0, 24, 48, 72 and 96 h. For histatins containing mixtures, additional samples were taken after 2, 4, 8 and 16 h of incubation.
The samples were analyzed with a BioFocus 2000 capillary zone electrophoresis system (Bio-Rad Laboratories, Hercules, CA, USA) equipped with an uncoated fused-silica capillary of internal diameter 50 μm and a length of 24 cm. Samples were loaded by pressure injection (5 psi/sec). Separation was performed at 10 kV (cathode at the detector side) at 20°C using 0.1 M phosphate buffer (pH 2.5) as electrolyte and monitored continuously at 200 nm. Peaks were quantified with the BioFocus Integrator software. In order to quantify the percentage of intact peptides remaining after incubation with CWE, the ratios of histatins, rhIL-6 or rhCXCL8 to internal standard was set at 100% at 0h, and the ratios at the other incubation time points were related to this.

[3] = Stability in CWE with protease inhibitor cocktail (PIC), capillary zone electrophoresis; assay type: in vitro ADME, human; conditions: 37°C, CZE, 0 h = 100%; for Percentage intact, CWE + PIC 2h / Percentage intact, CWE + PIC 4h / Percentage intact, CWE + PIC 8h / Percentage intact, CWE + PIC 16h / Percentage intact, CWE + PIC 24h / Percentage intact, CWE + PIC 48h / Percentage intact, CWE + PIC 72h / Percentage intact, CWE + PIC 96h: 1 mg/ml in PBS mixed 1:1 with CWE (1 mg/ml protein, pool of 5 donors) in PBS containing PIC (final 1:140 v/v), ratio to imidazole
Summary of the method: as §1

Percentage intact, CWE 2h ([1]; 0 h = 100%, experiment 1 of 3): 94.125%
Percentage intact, CWE 2h ([1]; 0 h = 100%, experiment 2 of 3): 97.8952%
Percentage intact, CWE 2h ([1]; 0 h = 100%, experiment 3 of 3): 100%
Percentage intact, CWE 4h ([1]; 0 h = 100%, experiment 1 of 3): 84.7219%
Percentage intact, CWE 4h ([1]; 0 h = 100%, experiment 2 of 3): 88.931%
Percentage intact, CWE 4h ([1]; 0 h = 100%, experiment 3 of 3): 83.8816%
Percentage intact, CWE 8h ([1]; 8 h, 0 h = 100%, experiment 1 of 3): 81.3497%
Percentage intact, CWE 8h ([1]; 8 h, 0 h = 100%, experiment 2 of 3): 83.9314%
Percentage intact, CWE 8h ([1]; 8 h, 0 h = 100%, experiment 3 of 3): 78.1579%
Percentage intact, CWE 16h ([1]; 0 h = 100%, experiment 1 of 3): 71.6467%
Percentage intact, CWE 16h ([1]; 0 h = 100%, experiment 2 of 3): 74.8159%
Percentage intact, CWE 16h ([1]; 0 h = 100%, experiment 3 of 3): 54.5266%
Percentage intact, CWE 24h ([1]; 24 h, 0 h = 100%, experiment 1 of 3): 54.5627%
Percentage intact, CWE 24h ([1]; 24 h, 0 h = 100%, experiment 2 of 3): 58.7294%
Percentage intact, CWE 24h ([1]; 24 h, 0 h = 100%, experiment 3 of 3): 52.1934%
Percentage intact, CWE 48h ([1]; 0 h = 100%, experiment 1 of 3): 29.9428%
Percentage intact, CWE 48h ([1]; 0 h = 100%, experiment 2 of 3): 34.7264%
Percentage intact, CWE 48h ([1]; 0 h = 100%, experiment 3 of 3): 26.5123%
Percentage intact, CWE 72h ([1]; 0 h = 100%, experiment 1 of 3): 20.4492%
Percentage intact, CWE 72h ([1]; 0 h = 100%, experiment 2 of 3): 21.8694%
Percentage intact, CWE 72h ([1]; 0 h = 100%, experiment 3 of 3): 20.7179%
Percentage intact, CWE 96h ([1]; 0 h = 100%, experiment 1 of 3): 15.3884%
Percentage intact, CWE 96h ([1]; 0 h = 100%, experiment 2 of 3): 19.0259%
Percentage intact, CWE 96h ([1]; 0 h = 100%, experiment 3 of 3): 11.1869%
remaining at 8 h, 0.5 mg/ml ([1]; human, chronic wound extracts (CWE), 1 mg/ml in PBS mixed 1:1 with CWE (1 mg/ml protein, pools of 5 donors), 8 h, 0 h = 100%, mean of 3 independent experiments, read-out: Original amount of peptide remaining intact after 8 h in CWE): 81%
remaining at 24 h, 0.5 mg/ml ([1]; human, chronic wound extracts (CWE), 1 mg/ml in PBS mixed 1:1 with CWE (1 mg/ml protein, pools of 5 donors), 24 h, 0 h = 100%, mean of 3 independent experiments, read-out: Original amount of peptide remaining intact after 24 h in CWE): 55%
metabolised at 8 h, 0.5 mg/ml ([1]; human, chronic wound extracts (CWE), incubation with chronic wound extracts, 8 h, read-out: Breakdown (degradation) in CWE in 8 h): ~20%
Percentage intact, PBS 24h ([2]; experiment 1 of 3): 91.5758%
Percentage intact, PBS 24h ([2]; experiment 2 of 3): 95.461%
Percentage intact, PBS 24h ([2]; experiment 3 of 3): 100.575%
Percentage intact, CWE + PIC 2h ([3]; experiment 1 of 3): 89.1635%
Percentage intact, CWE + PIC 2h ([3]; experiment 2 of 3): 89.9717%
Percentage intact, CWE + PIC 2h ([3]; experiment 3 of 3): 92.8798%
Percentage intact, CWE + PIC 4h ([3]; experiment 1 of 3): 81.2396%
Percentage intact, CWE + PIC 4h ([3]; experiment 2 of 3): 77.3258%
Percentage intact, CWE + PIC 4h ([3]; experiment 3 of 3): 92.4896%
Percentage intact, CWE + PIC 8h ([3]; experiment 1 of 3): 74.181%
Percentage intact, CWE + PIC 8h ([3]; experiment 2 of 3): 79.1445%
Percentage intact, CWE + PIC 8h ([3]; experiment 3 of 3): 86.6559%
Percentage intact, CWE + PIC 16h ([3]; experiment 1 of 3): 65.982%
Percentage intact, CWE + PIC 16h ([3]; experiment 2 of 3): 74.0107%
Percentage intact, CWE + PIC 16h ([3]; experiment 3 of 3): 77.3109%
Percentage intact, CWE + PIC 24h ([3]; 24 h, experiment 1 of 3): 76.8799%
Percentage intact, CWE + PIC 24h ([3]; 24 h, experiment 2 of 3): 76.3765%
Percentage intact, CWE + PIC 24h ([3]; 24 h, experiment 3 of 3): 70.9573%
Percentage intact, CWE + PIC 48h ([3]; experiment 1 of 3): 68.226%
Percentage intact, CWE + PIC 48h ([3]; experiment 2 of 3): 72.203%
Percentage intact, CWE + PIC 48h ([3]; experiment 3 of 3): 63.9246%
Percentage intact, CWE + PIC 72h ([3]; experiment 1 of 3): 63.1229%
Percentage intact, CWE + PIC 72h ([3]; experiment 2 of 3): 65.5213%
Percentage intact, CWE + PIC 72h ([3]; experiment 3 of 3): 53.9233%
Percentage intact, CWE + PIC 96h ([3]; experiment 1 of 3): 57.543%
Percentage intact, CWE + PIC 96h ([3]; experiment 2 of 3): 57.4907%
Percentage intact, CWE + PIC 96h ([3]; experiment 3 of 3): 51.0863%
remaining at 24 h, 0.5 mg/ml ([3]; human, with protease inhibitor cocktail (PIC), CWE with protease inhibitor cocktail (final 1:140 v/v), 24 h, mean of 3 independent experiments, read-out: Remaining fraction of intact peptide after 24 h in CWE + PIC): 74%
Substance: cyclo(DNLPETGGDSHEKRHHGYRRKFHEKHHSHREFPFYGDYGSNYLY) [cHst1]
